For data set [1], the target named is T1, human IL-23R (Homo sapiens, UniProt Q5VWK5).
T1 sequence (Q5VWK5 22-629): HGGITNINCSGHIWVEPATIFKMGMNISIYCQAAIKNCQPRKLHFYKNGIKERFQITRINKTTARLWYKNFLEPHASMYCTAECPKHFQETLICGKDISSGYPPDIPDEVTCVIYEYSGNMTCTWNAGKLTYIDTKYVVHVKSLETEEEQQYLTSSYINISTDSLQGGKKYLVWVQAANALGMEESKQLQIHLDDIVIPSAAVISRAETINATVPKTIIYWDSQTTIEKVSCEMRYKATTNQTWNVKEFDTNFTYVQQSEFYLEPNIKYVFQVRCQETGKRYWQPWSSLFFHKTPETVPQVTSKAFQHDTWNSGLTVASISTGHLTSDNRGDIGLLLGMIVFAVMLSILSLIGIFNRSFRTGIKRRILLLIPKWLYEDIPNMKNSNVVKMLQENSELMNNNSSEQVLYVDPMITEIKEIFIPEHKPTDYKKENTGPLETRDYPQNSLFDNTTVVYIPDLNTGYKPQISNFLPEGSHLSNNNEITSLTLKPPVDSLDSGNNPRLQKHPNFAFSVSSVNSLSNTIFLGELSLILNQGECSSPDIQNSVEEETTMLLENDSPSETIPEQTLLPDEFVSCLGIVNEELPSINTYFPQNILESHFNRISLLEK
The experiment in a line: biochemical. The following applies: for Emax: read-out: % displacement (hIL-23R NIuc). The essentials:
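BRET displacement of a TAMRA-labelled reference compound from N-terminal Nanoluc-IL-23R fusion protein in membranes from stably transfected HEK293 cells. Incubation 2 h at room temperature, then Nanoluc substrate was added and the TAMRA/Nanoluc ratio read. IC50 and maximal displacement came from 4-parameter logistic fits.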

Data set [2] in a line: Peptide stability in simulated intestinal fluid (SIF). Type of data set: in vitro ADME. The following applies: 37 °C, porcine pancreatin; for remaining at 1 h, 10 µM / remaining at 4 h, 10 µM: pig; for remaining at 1 h, 10 µM: pH 6.8, 1 h; for remaining at 4 h, 10 µM / SIF (% remaining 4 h): pH 6.8, 4 h; for SIF (% remaining 4 h): 10 µM. The procedure:
(§1) SGF was prepared by dissolving sodium chloride (0.2 g) in 50 mL of water. A volume of 0.7 mL of 10 M HCl was added to adjust the pH of the solution to 1.2 and the volume made up to 100 mL with water. […] SIF was prepared by dissolving monobasic potassium phosphate (0.68 g) in 50 mL of water and adjusting the pH to 6.8 with 1 M NaOH. The volume was subsequently made up to 100 mL with water. 200 mg porcine pancreatin (P1625, Sigma Aldrich) was gently dissolved into 20 mL preheated (37 °C) solution (10 g/L) immediately prior to the incubation.
(§2) The incubation was performed at 37 °C with gentle shaking. […] After the last timepoint, the sampling plate was mixed for 10 min on a shaking table and centrifuged 10 min at 2200 g. 70 µL resulting supernatant was diluted with 150 µL water, mixed and centrifugated before analysis by liquid chromatography high resolution mass spectrometry. […] Percent remaining at each timepoint was calculated relative to timepoint zero based on absolute peak areas.
Compounds with a SIF stability (after 4 h) above 70% are considered highly SIF stable.

The nature of data set [3]: Peptide stability in simulated gastric fluid (SGF). Type of data set: in vitro ADME. The following applies: 37 °C, porcine pepsin; for remaining at 1 h, 10 µM / remaining at 4 h, 10 µM: pig, simulated gastric fluid (SGF) with porcine pepsin (3.2 g/L), pH 1.2, 10 µM; for remaining at 1 h, 10 µM: pH 1.2, 1 h, read-out: SGF (% remaining 1 h); for remaining at 4 h, 10 µM: read-out: SGF (% remaining 4 h). The procedure:
as §1, §2
Compounds with a SGF stability (after 4 h) above 70% are considered highly SGF stable. […] Table 3-4: SGF data

Where [4] appears, read: SAR tables, % peptide remaining, read-out: SIF (% after 4 h).
The mark [5] stands for this setting: read-out: SIF (% remaining 4 h).

Where a SMILES comes first, the peptide text is derived from it. Bridges are numbered along the chain shown (N, C = ends). [ ]: non-standard residue; d: D form. 2Nal = N[C@@H](Cc1ccc2ccccc2c1)C(=O)O; AEF = NCCOc1ccc(C[C@H](N)C(=O)O)cc1; 3Pal = N[C@@H](Cc1cccnc1)C(=O)O; Lys(Me) = CNCCCC[C@H](N)C(=O)O; αMeL = CC(C)C[C@](C)(N)C(=O)O; NMeK = CN[C@@H](CCCCN)C(=O)O; Dab = NCC[C@H](N)C(=O)O; βAla = NCCC(=O)O

As usually defined, the IC50 is the point on the concentration scale where inhibition reaches its midpoint. Low readings indicate higher potency, high ones lower potency. As to `CC[C@H](C)[C@@H]1NC(=O)[C@@H]2CCCCNC(=O)CC[C@@H](C(=O)N[C@H](Cc3cnc[nH]3)C(=O)N[C@@H](Cc3cccnc3)C(=O)NC)NC(=O)[C@](C)(CC(C)C)NC(=O)[C@H](Cc3ccc4ccccc4c3)NC(=O)[C@H](Cc3ccc(OCCN)cc3)NC(=O)[C@H](CCC(=O)N2)NC(=O)[C@H](CCC(N)=O)NC(=O)[C@H](Cc2c[nH]c3ccccc23)NC(=O)[C@H](C(C)C)NC1=O` [Compound 70, K(1c)(6c)^†IVWQE(6c)[Y(2-aminoethoxy)][2-Nal][2-Me-Leu]E(1c)[{d}H][3-(3-Pyridyl)-Ala]-[NHMe]], 0.41 nM corresponded to half-maximal inhibition in data set [1] (IC50). The Emax in data set [1] worked out at 101%. Further, the remaining at 1 h, 10 µM in data set [2] was 101%; in data set [3] it was 102%. Also, the remaining at 4 h, 10 µM in data set [2] (setting [4]) was 72%; in data set [3] (pH 1.2, 4 h) it was 95%.

For `CC[C@H](C)[C@@H]1NC(=O)[C@@H]2CCCCNC(=O)CC[C@@H](C(=O)N[C@@H](Cc3cnc4ccccc4c3)C(=O)N[C@@H](Cc3cccnc3)C(=O)NC)NC(=O)[C@](C)(CC(C)C)NC(=O)[C@H](Cc3ccc4ccccc4c3)NC(=O)[C@H](Cc3ccc(OCCN)cc3)NC(=O)[C@H](CCC(=O)N2)NC(=O)[C@H](CCC(N)=O)NC(=O)[C@H](Cc2c[nH]c3ccccc23)NC(=O)[C@H](C(C)C)NC1=O` [Compound 71, K(1c)(6c)^†IVWQE(6c)[Y(2-aminoethoxy)][2-Nal][2-Me-Leu]E(1c)[3-(3-Quinolinyl)-Ala][3-(3-Pyridyl)-Ala]-[NHMe]], in data set [1], the “% displacement (hIL-23R NIuc)” value was found to be 100%. This compound yielded a half-maximal inhibitory concentration (IC50) in data set [1] of 0.084 nM. The “SIF (% remaining 4 h)” value in data set [2] is listed as 6%. The remaining at 1 h, 10 µM in data set [2] is 55%; in data set [3], 100%. In addition, the remaining at 4 h, 10 µM in data set [2] (setting [4]) is 6%; in data set [3] (pH 1.2, 4 h), 100%.

For `CC[C@H](C)[C@@H]1NC(=O)[C@@H]2CCCCNC(=O)CC[C@@H](C(=O)N3CCNC3C(=O)N[C@@H](Cc3cccnc3)C(=O)NC)NC(=O)[C@](C)(CC(C)C)NC(=O)[C@H](Cc3ccc4ccccc4c3)NC(=O)[C@H](Cc3ccc(OCCN)cc3)NC(=O)[C@H](CCC(=O)N2)NC(=O)[C@H](CCC(N)=O)NC(=O)[C@H](Cc2c[nH]c3ccccc23)NC(=O)[C@H](C(C)C)NC1=O` (stereo partly drawn) [Compound 72, K(1c)(6c)^†IVWQE(6c)[Y(2-aminoethoxy)][2-Nal][2-Me-Leu]E(1c)[(R,S)-Imidazolidin-2-carbonyl][3-(3-Pyridyl)-Ala]-[NHMe]], the IC50 in data set [1] came to 99 nM. Besides, the Emax in data set [1] was 97%. Further, the “SIF (% remaining 4 h)” value in data set [2] was 110%. The values for the remaining at 1 h, 10 µM in data set [2] and in data set [3] were 102% and 94%, respectively. The remaining at 4 h, 10 µM was 110% in data set [2] (setting [4]) and 107% in data set [3] (pH 1.2, 4 h).

As for `CC[C@H](C)[C@@H]1NC(=O)[C@@H]2CCCCNC(=O)CC[C@@H](C(=O)N[C@@H](Cc3cn(C)cn3)C(=O)N[C@@H](Cc3cccnc3)C(=O)NC)NC(=O)[C@](C)(CC(C)C)NC(=O)[C@H](Cc3ccc4ccccc4c3)NC(=O)[C@H](Cc3ccc(OCCN)cc3)NC(=O)[C@H](CCC(=O)N2)NC(=O)[C@H](CCC(N)=O)NC(=O)[C@H](Cc2c[nH]c3ccccc23)NC(=O)[C@H](C(C)C)NC1=O` [Compound 73, K(1c)(6c)^†IVWQE(6c)[Y(2-aminoethoxy)][2-Nal][2-Me-Leu]E(1c)[H(1-Me)][3-(3-Pyridyl)-Ala]-[NHMe]], the “% displacement (hIL-23R NIuc)” value in data set [1] stood at 102%. This compound returned an IC50 in data set [1] of 0.12 nM. Further, the remaining at 1 h, 10 µM in data set [2] is 11%; in data set [3] it was 100%. Also, the remaining at 4 h, 10 µM in data set [2] (setting [5]) was 0%; in data set [3] (pH 1.2, 4 h) it was 99%.

As to `CC[C@H](C)[C@@H]1NC(=O)[C@@H]2CCC(=O)N(C)CCCC[C@@H](C(=O)N[C@@H](CCN)C(=O)N[C@@H](Cc3cccnc3)C(=O)NC)NC(=O)[C@](C)(CC(C)C)NC(=O)[C@H](Cc3ccc4ccccc4c3)NC(=O)[C@H](Cc3ccc(OCCN)cc3)NC(=O)[C@H](CCC(=O)N2)NC(=O)[C@H](CCC(N)=O)NC(=O)[C@H](Cc2c[nH]c3ccccc23)NC(=O)[C@H](C(C)C)NC1=O` [Compound 74, E(1c)(6c)^†IVWQE(6c)[Y(2-aminoethoxy)][2-Nal][2-Me-Leu][K(Me)](1 c)[Dab][3-(3-Pyridyl)-Ala]-[NHMe]] (EIVWQE[AEF][2Nal][αMeL][Lys(Me)][Dab][3Pal]-NHMe; lactam 1-10, N-6), in data set [1], the Emax is 99%. Moreover, the results for the remaining at 1 h, 10 µM in data set [2] and in data set [3] were 91% and 94%, respectively. The remaining at 4 h, 10 µM in data set [2] (setting [5]) was 89%; in data set [3] (pH 1.2, 4 h) it was 92%.

The compound `CC[C@H](C)[C@@H]1NC(=O)[C@@H]2CCCCNC(=O)CC[C@@H](C(=O)N[C@@H](CCN)C(=O)N[C@@H](Cc3cccnc3)C(=O)NC)NC(=O)[C@](C)(CC(C)C)NC(=O)[C@H](Cc3ccc4ccccc4c3)NC(=O)[C@H](Cc3ccc(OCCN)cc3)NC(=O)[C@H](CCC(=O)N2C)NC(=O)[C@H](CCC(N)=O)NC(=O)[C@H](Cc2c[nH]c3ccccc23)NC(=O)[C@H](C(C)C)NC1=O` [Compound 75, [N-Me-Lys](1c)(6c)^†IVWQE(6c)[Y(2-aminoethoxy)][2-Nal][2-Me-Leu]E(1c)[Dab][3-(3-Pyridyl)-Ala]-[NHMe]] came in with an IC50 in data set [1] of 0.017 nM. Also, the Emax in data set [1] was 101%. The remaining at 1 h, 10 µM is 96% in data set [2] and 102% in data set [3]. In addition, the remaining at 4 h, 10 µM is 79% in data set [2] (setting [5]) and 92% in data set [3] (pH 1.2, 4 h).

In data set [1], `CNC(=O)[C@H](Cc1cccnc1)NC(=O)[C@H](CCN)NC(=O)[C@@H]1CCC(=O)NCCCC[C@H]2C(=O)NCCC(=O)N[C@@H](Cc3c[nH]c4ccccc34)C(=O)N[C@@H](CCC(N)=O)C(=O)N[C@@H](CCC(=O)N2C)C(=O)N[C@@H](Cc2ccc(OCCN)cc2)C(=O)N[C@@H](Cc2ccc3ccccc3c2)C(=O)N[C@@](C)(CC(C)C)C(=O)N1` [Compound 80, [N-Me-Lys](1c)(6c)^†[3-Aminopropanoyl]WQE(6c)[Y(2-aminoethoxy)][2-Nal][2-Me-Leu]E(1c)[Dab][3-(3-Pyridyl)-Ala]-[NHMe]] ([NMeK][βAla]WQE[AEF][2Nal][αMeL]E[Dab][3Pal]-NHMe; lactam 1-9, N-5) showed an IC50 of 0.017 nM. Moreover, in data set [1], the Emax turned out to be 102%. Moreover, the remaining at 1 h, 10 µM is 116% in data set [2] and 107% in data set [3]. The remaining at 4 h, 10 µM was 89% in data set [2] (setting [5]) and 104% in data set [3] (pH 1.2, 4 h).

Consider `CNC(=O)[C@H](Cc1cccnc1)NC(=O)[C@H](CCN)NC(=O)[C@@H]1CCC(=O)NCCCC[C@@H]2NC(=O)CC[C@H](NC(=O)[C@H](CCC(N)=O)NC(=O)[C@H](Cc3c[nH]c4ccccc34)NC(=O)CCN(C)C2=O)C(=O)N[C@@H](Cc2ccc(OCCN)cc2)C(=O)N[C@@H](Cc2ccc3ccccc3c2)C(=O)N[C@@](C)(CC(C)C)C(=O)N1` [Compound 81, K(1c)(6c)^†[N-Me-3-Aminopropanoyl]WQE(6c)[Y(2-aminoethoxy)][2-Nal][2-Me-Leu]E(1c)[Dab][3-(3-Pyridyl)-Ala]-[NHMe]], for which, in data set [1], the “% displacement (hIL-23R NIuc)” value was 103%. The same compound gave an IC50 in data set [1] of 0.056 nM. Besides, the remaining at 1 h, 10 µM in data set [2] was 101%; in data set [3] it was 100%. The remaining at 4 h, 10 µM in data set [2] (setting [5]) was 78%. In addition, the “SGF (% remaining 4 h)” value in data set [3] (10 µM, pH 1.2, 4 h) was 99%.

The record behind these values is patent publication EP4471048A1, “PEPTIDE INHIBITORS OF INTERLEUKIN-23 RECEPTOR” (Zealand Pharma A/S, priority 2023, dated 2024).
